Reference: patent US20140023611A1 (priority 2010, published 2014)

These compounds were tested against T1, rat NaP2b (SLC34A2) (Rattus norvegicus, UniProt Q9JJ09) (assay: Inhibition of NaP2b-mediated Pi (33P) uptake in transfected HEK293 cells, rat NaP2b). Settings: 33P Pi uptake, 0.1 mM phosphate, value given as pIC50 range.
T1 construct: host or cells: HEK293
T1 sequence (Q9JJ09 1-695): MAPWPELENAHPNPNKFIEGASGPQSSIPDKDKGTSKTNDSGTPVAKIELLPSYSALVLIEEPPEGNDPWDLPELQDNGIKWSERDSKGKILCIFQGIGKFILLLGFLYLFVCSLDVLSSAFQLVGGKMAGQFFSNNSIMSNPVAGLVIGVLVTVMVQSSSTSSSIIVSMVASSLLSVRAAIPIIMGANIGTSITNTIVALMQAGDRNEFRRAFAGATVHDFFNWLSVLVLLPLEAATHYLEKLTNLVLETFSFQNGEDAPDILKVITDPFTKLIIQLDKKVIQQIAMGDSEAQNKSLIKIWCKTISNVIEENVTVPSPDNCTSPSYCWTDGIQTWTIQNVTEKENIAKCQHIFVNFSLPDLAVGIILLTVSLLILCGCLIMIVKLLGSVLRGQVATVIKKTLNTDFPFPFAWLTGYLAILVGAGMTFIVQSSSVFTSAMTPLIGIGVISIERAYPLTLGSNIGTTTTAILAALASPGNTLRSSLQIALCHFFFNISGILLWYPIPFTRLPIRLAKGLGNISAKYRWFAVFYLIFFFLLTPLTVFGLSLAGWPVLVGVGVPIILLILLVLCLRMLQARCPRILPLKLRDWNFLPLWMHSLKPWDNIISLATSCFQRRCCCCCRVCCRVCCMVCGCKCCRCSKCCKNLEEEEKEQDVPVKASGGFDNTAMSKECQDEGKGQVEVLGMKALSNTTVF
Assay type: cell-based
Procedure, shortened: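 The cells transiently expressed NaP2b after Lipofectamine transfection. Each compound was run in duplicate over twelve concentrations, 0.1 nM–30 uM.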

Question: With CCN(CC)c1ccc(NC(=O)c2cccc(CCCOCCOCCOCCOCCNS(=O)(=O)c3ccc(C(=O)N4CCN(CCOCCOCCOCCOCCOCCOCCOC)C(=O)C4)cc3)c2)c(-c2cc(C(=O)NCc3cccc(C(F)(F)F)c3)ccn2)c1 [Example 288, 2-(2-(3-(1-(4-(4-(2,5,8,11,14,17,20-heptaoxadocosan-22-yl)-3-oxopiperazine-1-carbonyl)phenylsulfonamido)-3,6,9,12-tetraoxapentadecan-15-yl)benzamido)-5-(diethylamino)phenyl)-N-(3-(trifluoromethyl)benzyl)isonicotinamide] as the compound, how does the IC50 read?
Answer: 1 to 7.94 µM

Question: For CN(CCN1C[C@H](O)C[C@H]1C(=O)N(C)CCOCCOCCOCCC(=O)OC(C)(C)C)C(=O)c1cccc(C(=O)Nc2ccc(N3CCCCC3)cc2-c2cc(C(=O)N[C@H]3CCCc4ccccc43)ccn2)c1 [Example 241], which IC50 is on record?
Answer: 1 to 7.94 µM

Question: For CN1CCN(CCN(C)Cc2cccc(C(=O)Nc3ccc(N4CCCCC4)cc3-c3cc(C(=O)NCc4cccc(C(F)(F)F)c4)ccn3)n2)CC1 [Example 61, 6-((Methyl(2-(4-methylpiperazin-1-yl)ethyl)amino)methyl)-N-(4-(piperidin-1-yl)-2-(4-((3-(trifluoromethyl)benzyl)carbamoyl)pyridin-2-yl)phenyl)picolinamide], which IC50 is on record?
Answer: 10 to 31.6 µM

Question: How did the IC50 turn out when O=C(O)CCSCc1cccc(C(=O)Nc2ccc(N3CCCCC3)cc2-c2cc(C(=O)CCc3ccccc3)ccn2)c1 [Example 5.1, 3-((3-((2-(4-(3-Phenylpropanoyl)pyridin-2-yl)-4-(piperidin-1-yl)phenyl)carbamoyl)benzyl)thio)propanoic acid] was run?
Answer: 1 to 7.94 µM

Question: Which IC50 does the source give for CCN(CC)CCN(C)C(=O)c1cccc(SCc2cccc(C(=O)Nc3ccc(N4CCCCC4)cc3-c3cc(C(=O)NCc4cccc(C(F)(F)F)c4)ccn3)c2)c1 [Example 10.8] here?
Answer: 10 to 31.6 µM

Question: For CN(CCN1CCN(C(=O)OC(C)(C)C)CC1)C(=O)c1cccc(C(=O)Nc2ccc(N3CCCCC3)cc2-c2cc(C(=O)NCc3cccc(C(F)(F)F)c3)ccn2)c1 [Example 4.5, Tert-butyl 4-(2-(N-methyl-3-((4-(piperidin-1-yl)-2-(4-((3-(trifluoromethyl)benzyl)carbamoyl)pyridin-2-yl)phenyl)carbamoyl)benzamido)ethyl)piperazine-1-carboxylate], which IC50 is on record?
Answer: 1 to 7.94 µM

Question: For CN(CCN1CCN(S(C)(=O)=O)CC1)Cc1cccc(C(=O)Nc2ccc(N3CCCCC3)cc2-c2cc(C(=O)NCc3cccc(C(F)(F)F)c3)ccn2)n1 [Example 62, 6-((Methyl(2-(4-(methylsulfonyl)piperazin-1-yl)ethyl)amino)methyl)-N-(4-(piperidin-1-yl)-2-(4-((3-(trifluoromethyl)benzyl)carbamoyl)pyridin-2-yl)phenyl)picolinamide], which IC50 is on record?
Answer: 10 to 31.6 µM

Question: How did the IC50 turn out when O=C(O)CCSCc1cccc(C(=O)Nc2ccc(N3CCCCC3)cc2-c2cc(C(=O)Nc3ccc4ncsc4c3)ccn2)c1 [Example 1.20] was run?
Answer: 10 to 31.6 µM

Question: CN1CCC(N(C)C(=O)c2cccc(SCc3cccc(C(=O)Nc4ccc(N5CCCCC5)cc4-c4cc(C(=O)NCc5cccc(C(F)(F)F)c5)ccn4)c3)c2)CC1 [Example 10.2] was tested. Which IC50 did it give?
Answer: 10 to 31.6 µM

Question: O=C(NCc1cccc(C(F)(F)F)c1)c1ccnc(-c2cc(N3CCCCC3)ccc2NC(=O)c2cccc(C(=O)N3CCC(CCO)CC3)c2)c1 [Example 4.29] was tested. Which IC50 did it give?
Answer: 1 to 7.94 µM

Question: Which IC50 does the source give for CCN(CC)c1ccc(NC(=O)c2cccc(CCCOCCOCCOCCOCCNS(=O)(=O)c3ccc(C(=O)N(C)CCOCCOCCOCCOCCOCCOCCOC)cc3)c2)c(-c2cc(C(=O)NCc3cccc(C(F)(F)F)c3)ccn2)c1 [Example 287, 2-(2-(3-(1-(4-(2,5,8,11,14,17,20-heptaoxadocosan-22-yl(methyl)carbamoyl)phenylsulfonamido)-3,6,9,12-tetraoxapentadecan-15-yl)benzamido)-5-(diethylamino)phenyl)-N-(3-(trifluoromethyl)benzyl)isonicotinamide] here?
Answer: 1 to 7.94 µM

Question: Which IC50 does the source give for CC(=O)NC(C(=O)O)C(C)(C)SCc1cccc(C(=O)Nc2ccc(N3CCCCC3)cc2-c2cc(C(=O)NCc3cccc(C(F)(F)F)c3)ccn2)c1 (stereo not drawn) [Example 8.11] here?
Answer: 10 to 31.6 µM

Question: For CCN(CC)c1ccc(NC(=O)c2ccc(CCCOCCOCCOCC[N+]34CCC(CC3)CC4)cc2)c(-c2cc(C(=O)NCc3cccc(C(F)(F)F)c3)ccn2)c1 [Example 331, 1-(2-(2-(2-(3-(4-(4-(diethylamino)-2-(4-(3-(trifluoromethyl)benzylcarbamoyl)pyridin-2-yl)phenylcarbamoyl)phenyl)propoxy)ethoxy)ethoxy)ethyl)-1-azonia-bicyclo[2.2.2]octane], which “pIC50 range for rat Nap2b” value is on record?
Answer: 5.1-6.0

Question: How did the IC50 turn out when CC(C)C(=O)NC(CSCc1cccc(C(=O)Nc2ccc(N3CCCCC3)cc2-c2cc(C(=O)NCc3cccc(C(F)(F)F)c3)ccn2)c1)C(=O)O (stereo not drawn) [Example 8.12] was run?
Answer: 10 to 31.6 µM

Question: Cc1nc(SCc2cccc(C(=O)Nc3ccc(N4CCCCC4)cc3-c3cc(C(=O)NCc4cccc(C(F)(F)F)c4)ccn3)c2)sc1CC(=O)O [Example 8.16] was tested. Which IC50 did it give?
Answer: 1 to 7.94 µM

Question: O=C(O)CCSCc1cccc(C(=O)Nc2ccc(N3CCCCC3)cc2-c2cc(NCCc3cccc(C(F)(F)F)c3)ccn2)c1 [Example 70, 3-((3-((4-(Piperidin-1-yl)-2-(4-((3-(trifluoromethyl)phenethyl)amino)pyridin-2-yl)phenyl)carbamoyl)benzyl)thio)propanoic acid] was tested. Which IC50 did it give?
Answer: 10 to 31.6 µM

Question: O=C(O)CCOCCOCCOCCOCCOCCOCCOCCOCCSCc1cccc(C(=O)Nc2ccc(N3CCCCC3)cc2-c2cc(C(=O)NCc3cccc(C(F)(F)F)c3)ccn2)c1 [Example 8.22] was tested. Which IC50 did it give?
Answer: 1 to 7.94 µM

Question: With COCCOCCOCCOCCOCCOCCOCCOCC(=O)N1CCN(CCN(C)C(=O)c2cccc(C(=O)Nc3ccc(N4CCCCC4)cc3-c3cc(C(=O)N[C@H]4CCCc5ccccc54)ccn3)c2)CC1 [Example 228, (S)—N1-(2-(4-2,5,8,11,14,17,20,23-octaoxapentacosanepiperazin-1-yl)ethyl)-N1-methyl-N3-(4-(piperidin-1-yl)-2-(4-(1,2,3,4-tetrahydronaphthalen-1-ylcarbamoyl)pyridin-2-yl)phenyl)isophthalamide] as the compound, how does the IC50 read?
Answer: 1 to 7.94 µM

Question: CN(CCO)CCN(C)C(=O)c1cccc(C(=O)Nc2ccc(N3CCCCC3)cc2-c2cc(C(=O)NCc3cccc(C(F)(F)F)c3)ccn2)c1 [Example 4.21, N1-(2-((2-Hydroxyethyl)(methyl)amino)ethyl)-N1-methyl-N3-(4-(piperidin-1-yl)-2-(4-((3-(trifluoromethyl)benzyl)carbamoyl)pyridin-2-yl)phenyl)isophthalamide] was tested. Which IC50 did it give?
Answer: 1 to 7.94 µM

Question: How did the IC50 turn out when COCCNC(=O)C1CCCN(Cc2cccc(C(=O)Nc3ccc(N4CCCCC4)cc3-c3cc(C(=O)NCc4cccc(C(F)(F)F)c4)ccn3)c2)C1 (stereo in doubt) [Example 12.1, (S)-2-(2-(3-((3-((2-Methoxyethyl)carbamoyl)piperidin-1-yl)methyl)benzamido)-5-(piperidin-1-yl)phenyl)-N-(3-(trifluoromethyl)benzyl)isonicotinamide] was run?
Answer: 1 to 7.94 µM

Question: How did the IC50 turn out when O=C(O)CCSCc1cccc(C(=O)Nc2ccc(N3CCCCC3)cc2-c2cc(C(=O)NCc3cccc(C(F)(F)F)c3)c(F)cn2)c1 [Example 89] was run?
Answer: 1 to 7.94 µM

Question: For CN(Cc1cccc(C(=O)O)c1)C(=O)c1cccc(C(=O)Nc2ccc(N3CCCCC3)cc2-c2cc(C(=O)NCc3cccc(C(F)(F)F)c3)ccn2)c1 [Example 4.32, 3-((N-Methyl-3-(4-(piperidin-1-yl)-2-(4-(3-(trifluoromethyl)benzylcarbamoyl)pyridin-2-yl)phenylcarbamoyl)benzamido)methyl)benzoic acid], which IC50 is on record?
Answer: 1 to 7.94 µM

Question: How did the IC50 turn out when CCN(CC)c1ccc(NC(=O)c2cccc(C(=O)N(C)CCN(C)CCOCCOCCOCCNC(=O)N(CCO)CCO)c2)c(-c2cc(C(=O)N[C@H]3CCCc4ccccc43)ccn2)c1 [Example 225, (S)—N1-(4-(diethylamino)-2-(4-(1,2,3,4-tetrahydronaphthalen-1-ylcarbamoyl)pyridin-2-yl)phenyl)-N3-(1-hydroxy-3-(2-hydroxyethyl)-17-methyl-4-oxo-8,11,14-trioxa-3,5,17-triazanonadecan-19-yl)-N3-methylisophthalamide] was run?
Answer: 10 to 31.6 µM

Question: Which IC50 does the source give for O=C(O)c1cccc(CSc2cccc(C(=O)Nc3ccc(N4CCCCC4)cc3-c3cc(C(=O)NCc4cccc(C(F)(F)F)c4)ccn3)c2)c1 [Example 186, 3-((3-(4-(piperidin-1-yl)-2-(4-(3-(trifluoromethyl)benzylcarbamoyl)pyridin-2-yl)phenylcarbamoyl)phenylthio)methyl)benzoic acid] here?
Answer: 1 to 7.94 µM

Question: Which IC50 does the source give for CN(CCN1CCOCC1)C(=O)c1cccc(C(=O)Nc2ccc(N3CCCCC3)cc2-c2cc(OCc3cccc(C(F)(F)F)c3)ccn2)c1 [Example 99] here?
Answer: 10 to 31.6 µM

Question: Which IC50 does the source give for O=C(O)CCSCc1cccc(C(=O)Nc2ccc(N3CCCCC3)cc2-c2cc(Oc3cccc(C(F)(F)F)c3)ccn2)c1 [Example 94] here?
Answer: 10 to 31.6 µM

Question: For CN(CCN1CCOCC1)C(=O)c1cccc(C(=O)Nc2ccc(N3CCCCC3)cc2-c2cc(C(=O)NCc3ccccc3OC(F)(F)F)ccn2)c1 [Example 123, N1-(2-(4-((2-(trifluoromethoxy)benzyl)carbamoyl)pyridin-2-yl)-4-(piperidin-1-yl)phenyl)-N3-methyl-N3-(2-morpholinoethyl)isophthalamide], which IC50 is on record?
Answer: 1 to 7.94 µM
